Measurements from paper PMC6201879, “N-substituted phenylbenzamides of the niclosamide chemotype attenuate obesity related changes in high fat diet fed mice” (PLoS ONE, 2018).
Read-outs that look alike come from different tables or passages of the source.

Columns and labels:
[1] = test system: Salmonella typhimurium TA1535
[2] = test system: Salmonella typhimurium TA1537
[3] = test system: Escherichia coli WP2 uvrA (pKM101)
PH5CH8 liver cells = test: High-throughput hepatic de novo lipogenesis (DNL) assay, high content imaging of steatotic phenotype; assay type: cell-based, human
[4] = test system: HEK293 cells stably transduced with the human OCT3 transporter; test: Cellular oxygen consumption rate (OCR), MitoXpress Xtra; assay type: cell-based; settings: HEK293 cells expressing human OCT3
Protocol: Oxygen consumption rate experiments were performed by ZenBio, Inc (RTP, NC). HEK293 cells stably transduced with the human OCT3 transporter were plated in black-walled microclear plates (Greiner-BioOne) at 60,000 cells per well in growth medium. Cells were incubated overnight to allow attachment before growth medium was removed and replaced with 150μL of assay medium containing compound dilutions. Four concentrations of each compound were prepared and transferred to the empty wells. Control wells contained assay medium only or assay medium containing […] (FCCP) at 1μM. Ten μL of MitoXpress Xtra reagent was added to each test well and 100μL of pre-warmed mineral oil was overlaid in each well to create a seal. The plates were immediately read on a FLUOstar Omega (BMG) using dual read Time Resolved Fluorescence (TR-F) for 2 hours, with measurements taken every 2 minutes using 340nm and 650nm as excitation and emission wavelengths respectively. For lifetime analysis, two measurements per well were taken: 1) delay of 30μs, with a window of 30μs; and 2) delay of 70μs with a window of 30μs. Background TRF values were subtracted from all readings. A ratiometric analysis was performed to determine changes in the Lifetime fluorescence signal: Lifetime (μs)[T] = (D2-D1)/ln(W1/W2), where D is delay; W is fluorescence window value at each time point. Lifetime slopes were calculated using each Lifetime measurement over time. Data are presented as mean ± standard error (SE). The differences between the control (DMSO) and compound treated wells were analyzed using the Student’s t-test. A value of p≤0.05 was considered statistically significant. […]

[5] = test system: C57-diet induced obesity (DIO) mouse; test: Glucose tolerance test in DIO mice; assay type: in vivo; settings: 5mg/kg for 7 days
Protocol: Animals were then treated with 5mg/kg niclosamide or vehicle for 7 days and GTT was performed again.
Glucose tolerance test in DIO mice. 2g/kg of glucose was injected IP and at 15, 30 and 60 min, blood glucose levels were measured.

[6] = test system: Salmonella typhimurium TA100; settings: for Mean Revertant Colony Counts TA-100 SP9+: with S9
[7] = test system: carbonic anhydrase-III (CAIII); settings: HFD fed-DIO mice; cited from earlier work
[8] = set-up: method as in PMID 26245118; settings: cited from earlier work
[9] = cited from earlier work
[10] = test system: Salmonella typhimurium TA98; test: Ames assay, strain TA98; settings: for Mean Revertant Colony Counts TA98 SP9+: with S9
[11] = test system: Escherichia coli WP2 uvrA (pKM101); test: Ames assay, strain WP2 uvrA (pKM101); settings: for Mean Revertant Colony Counts WP2 uvrA (pKM101) SP9+: with S9; for Mean Revertant Colony Counts WP2 uvrA (pKM101) S9-: without S9
p-AMPK Thr-172 = test: Western blot of p-AMPK Thr-172 in liver of HFD-fed mice; settings: HFD-fed mice; 5 or 25mg/kg IP daily for 12 days
[12] = test system: Salmonella typhimurium (TA98, TA100, TA1535 and TA1537) and Escherichia coli (WP2 uvrA (pKM101)); test: Ames assay, overall outcome and cytotoxicity across strains
[13] = test system: fatty acid synthase (FAS); test: Western blot of fatty acid synthase in liver of HFD-fed mice; settings: HFD-fed mice; highest concentration (25mg/kg) IP daily for 12 days
[14] = any concentration tested, vs negative control

Nc1ccc2cc3ccccc3cc2c1 [Compound 2-AA, 2-Aminoanthracene, reference compound]
Mean Revertant Colony Counts TA-1535 SP9+ ([1]; Salmonella typhimurium): 24.0
Mean Revertant Colony Counts TA-1537 SP9+ ([2]; Salmonella typhimurium): 11.0
Mean Revertant Colony Counts WP2 uvrA (pKM101) SP9+ [3]: 345.3

O=C(Nc1ccc([N+](=O)[O-])cc1Cl)c1cc(Cl)ccc1O [Niclosamide]
IC50 (PH5CH8 liver cells; Homo sapiens, PH5CH8 liver cells, 10-point dose response between 1μM and 1.9nM, read-out: IC50 (uM), inhibition of steatotic phenotype in DNL assay): 0.02 µM
reduced steatosis (steatotic phenotype in DNL assay) (PH5CH8 liver cells; PH5CH8, assay validation): 77 ±12%
change in respiration / oxygen consumption rate (OCR) ([4]; compared to DMSO control, 2 hours): increased OCR
concentration dependence of OCR change ([4]; four concentrations): dose dependent increase in OCR
blood glucose levels at 60 minutes, glucose tolerance test ([5]; 2g/kg glucose IP): 250 mg/dL
plasma glucose levels after the 7-day treatment period ([5]; pre-treatment approximately 400mg/dL): ~275 mg/dL
Mean Revertant Colony Counts TA-100 SP9+ ([6]; 1.5 ug/Well): 19.3
Mean Revertant Colony Counts TA-100 S9- ([6]; 1.5 ug/Well, without S9): 9.3
Mean Revertant Colony Counts TA-100 SP9+ ([6]; 4 ug/Well): 36.7
Mean Revertant Colony Counts TA-100 SP9+ ([6]; 10 ug/Well): 23.3
Mean Revertant Colony Counts TA-100 SP9+ ([6]; 25 ug/Well): 2.3
fold increase in the mean number of revertant colonies, TA100 [6, 14]: < 2 fold
Mean Revertant Colony Counts TA-1535 SP9+ ([1]; 1.5 ug/Well, with S9): 3.3
Mean Revertant Colony Counts TA-1535 SP9+ ([1]; 4 ug/Well, with S9): 3.7
fold increase in the mean number of revertant colonies, TA1535 [1, 14]: < 3 fold
Mean Revertant Colony Counts TA-1537 SP9+ ([2]; 1.5 ug/Well, with S9): 1.7
Mean Revertant Colony Counts TA-1537 SP9+ ([2]; 4 ug/Well, with S9): 2.0
Mean Revertant Colony Counts TA-1537 SP9+ ([2]; 10 ug/Well, with S9): 0.7
fold increase in the mean number of revertant colonies, TA1537 [2, 14]: < 3 fold
carbonic anhydrase-III (CAIII) hepatic protein [7]: down regulated
half-life [8]: 6.7 h
peak plasma concentration (Cmax) ([9]; 5mg/kg oral dose in rats): 354 ng/mL
half-life ([9]; rat, in vivo, po, 5 mg/kg): 6.7 h
Mean Revertant Colony Counts TA98 SP9+ ([10]; 1.5 ug/Well): 52.0
Mean Revertant Colony Counts TA98 S9- ([10]; 1.5 ug/Well, without S9): 1.5
Mean Revertant Colony Counts TA98 SP9+ ([10]; 4 ug/Well): 108.3
Mean Revertant Colony Counts TA98 SP9+ ([10]; 10 ug/Well): 194.7
fold increase in the mean number of revertant colonies, TA98 ([10]; 1.5, 4 and 10 μg/well in the presence of S9 mix): ≥ 2 fold
Mean Revertant Colony Counts WP2 uvrA (pKM101) SP9+ ([11]; 1.5 ug/Well): 36.7
Mean Revertant Colony Counts WP2 uvrA (pKM101) S9- ([11]; 1.5 ug/Well): 17.3
Mean Revertant Colony Counts WP2 uvrA (pKM101) SP9+ ([11]; 4 ug/Well): 44.0
Mean Revertant Colony Counts WP2 uvrA (pKM101) S9- ([11]; 4 ug/Well): 20.7
Mean Revertant Colony Counts WP2 uvrA (pKM101) SP9+ ([11]; 10 ug/Well): 34.0
Mean Revertant Colony Counts WP2 uvrA (pKM101) S9- ([11]; 10 ug/Well): 19.3
Mean Revertant Colony Counts WP2 uvrA (pKM101) SP9+ ([11]; 25 ug/Well): 31.7
Mean Revertant Colony Counts WP2 uvrA (pKM101) S9- ([11]; 25 ug/Well): 14.7
Mean Revertant Colony Counts WP2 uvrA (pKM101) SP9+ ([11]; 64 ug/Well): 27.0
Mean Revertant Colony Counts WP2 uvrA (pKM101) S9- ([11]; 64 ug/Well): 22.7
Mean Revertant Colony Counts WP2 uvrA (pKM101) SP9+ ([11]; 160 ug/Well): 24.7
Mean Revertant Colony Counts WP2 uvrA (pKM101) S9- ([11]; 160 ug/Well): 17.7
Mean Revertant Colony Counts WP2 uvrA (pKM101) SP9+ ([11]; 400 ug/Well): 14.7
Mean Revertant Colony Counts WP2 uvrA (pKM101) S9- ([11]; 400 ug/Well): 17.7
Mean Revertant Colony Counts WP2 uvrA (pKM101) SP9+ ([11]; 1000 ug/Well): 14.7
Mean Revertant Colony Counts WP2 uvrA (pKM101) S9- ([11]; 1000 ug/Well): 14.0
fold increase in the mean number of revertant colonies, WP2 uvrA (pKM101) [11, 14]: < 2 fold
concentration with significant cytotoxicity, WP2 uvrA (pKM101) ([11]; both in the presence and absence of S9 mix): ≥ 400 μg /well
p-AMPK Thr-172 in liver (p-AMPK Thr-172): significantly upregulated
Ames assay outcome (mutagenicity) [12]: positive
concentration with significant cytotoxicity, strains TA98, TA100, TA1535 and TA1537 ([12]; in the absence of the S9 mix): ≥ 1.5 μg /well
concentration with significant cytotoxicity, strains TA98, TA100, TA1535 and TA1537 ([12]; in the presence of S9 mix): ≥ 10 μg /well
expression of fatty acid synthase (FAS) in liver [13]: significant reduction
